PubChem BioAssay AID2060327 (Molecular Pharmacology Branch, DTP, NCI, 2025)
Values joined by “and” are separate entries in the source; they are usually repeats but may differ in a detail not shown here. Identical values can stand only once.

Tested on: PC-3 multi-cell spheroids, viability
Test: Anticancer human tumor PC-3 cell line growth inhibition [IpAb];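 also: spheroids exposed to compounds for 7 days before readout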;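 as to viability, T/C: 100% = DMSO vehicle control wells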
Settings: for viability, T/C: stronger effect = lower value
Summary of the method: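 Spheroids of 60% malignant cells, 25% HUVEC and 15% MSC were exposed to targeted agents combined with ipatasertib or abemaciclib. Doses started at or near clinical Cmax (10 microM when unknown) and fell in half-log steps.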

[1] = curve of first compound, second compound 0.1 µM
[2] = curve of first compound, second compound 0.316 µM
[3] = curve of first compound, second compound 1 µM
[4] = second compound 0.1 µM, first compound 0.0316 µM
[5] = second compound 0.1 µM, first compound 0.1 µM
[6] = second compound 0.1 µM, first compound 0.316 µM
[7] = second compound 0.1 µM, first compound 1 µM
[8] = second compound 0.1 µM, first compound 3.16 µM
[9] = second compound 0.1 µM, first compound 10 µM
[10] = second compound 0.316 µM, first compound 0.0316 µM
[11] = second compound 0.316 µM, first compound 0.1 µM
[12] = second compound 0.316 µM, first compound 0.316 µM
[13] = second compound 0.316 µM, first compound 1 µM
[14] = second compound 0.316 µM, first compound 3.16 µM
[15] = second compound 0.316 µM, first compound 10 µM
[16] = second compound 1 µM, first compound 0.0316 µM
[17] = second compound 1 µM, first compound 0.1 µM
[18] = second compound 1 µM, first compound 0.316 µM
[19] = second compound 1 µM, first compound 1 µM
[20] = second compound 1 µM, first compound 3.16 µM
[21] = second compound 1 µM, first compound 10 µM
[22] = curve of first compound, second compound 0.01 µM
[23] = curve of first compound, second compound 0.0316 µM
[24] = second compound 0.01 µM, first compound 0.0316 µM
[25] = second compound 0.01 µM, first compound 0.1 µM
[26] = second compound 0.01 µM, first compound 0.316 µM
[27] = second compound 0.01 µM, first compound 1 µM
[28] = second compound 0.01 µM, first compound 3.16 µM
[29] = second compound 0.01 µM, first compound 10 µM
[30] = second compound 0.0316 µM, first compound 0.0316 µM
[31] = second compound 0.0316 µM, first compound 0.1 µM
[32] = second compound 0.0316 µM, first compound 0.316 µM
[33] = second compound 0.0316 µM, first compound 1 µM
[34] = second compound 0.0316 µM, first compound 3.16 µM
[35] = second compound 0.0316 µM, first compound 10 µM

Row | SMILES | IC50 [1] [nM] | IC50 [2] [nM] | IC50 [3] [nM] | viability, T/C [4] [%] | viability, T/C [5] [%] | viability, T/C [6] [%] | viability, T/C [7] [%] | viability, T/C [8] [%] | viability, T/C [9] [%] | viability, T/C [10] [%] | viability, T/C [11] [%] | viability, T/C [12] [%] | viability, T/C [13] [%] | viability, T/C [14] [%] | viability, T/C [15] [%] | viability, T/C [16] [%] | viability, T/C [17] [%] | viability, T/C [18] [%] | viability, T/C [19] [%] | viability, T/C [20] [%] | further results
1 | Cn1nccc1Nc1nccc(-c2ccn(C(CO)c3ccc(Cl)c(F)c3)c(=O)c2)n1 (centres undefined) + CC(C)NCC(C(=O)N1CCN(c2ncnc3c2C(C)CC3O)CC1)c1ccc(Cl)cc1 | > 10000 | < 31.6 | < 31.6 | 76.7 | 77.3 | 83.1 | 105 | 127 | 104 | 42.8 | 43.8 | 41.9 | 48 | 88.1 | 76.9 | 20.4 | 24.2 | 27.2 | 34.5 | 59.1 | IC50 (curve of first compound, second compound 3.16 µM): < 31.6 nM; IC50 (curve of first compound, second compound 10 µM): < 31.6 nM; viability, T/C [21]: 34.3%; viability, T/C (second compound 3.16 µM, first compound 0.0316 µM): 14.2%; viability, T/C (second compound 3.16 µM, first compound 0.1 µM): 15.4%; viability, T/C (second compound 3.16 µM, first compound 0.316 µM): 15.1%; viability, T/C (second compound 3.16 µM, first compound 1 µM): 19.7%; viability, T/C (second compound 3.16 µM, first compound 3.16 µM): 23.4%; viability, T/C (second compound 3.16 µM, first compound 10 µM): 13.8%; viability, T/C (second compound 10 µM, first compound 0.0316 µM): 12.7%; viability, T/C (second compound 10 µM, first compound 0.1 µM): 13.3%; viability, T/C (second compound 10 µM, first compound 0.316 µM): 12.2%; viability, T/C (second compound 10 µM, first compound 1 µM): 14.3%; viability, T/C (second compound 10 µM, first compound 3.16 µM): 17.4%; viability, T/C (second compound 10 µM, first compound 10 µM): 10.8%
2 | Cn1nccc1Nc1nccc(-c2ccn(C(CO)c3ccc(Cl)c(F)c3)c(=O)c2)n1 (centres undefined) |  |  |  |  |  |  |  |  |  |  |  |  |  |  |  |  |  |  |  |  | viability, T/C (compound 0.0316 µM): 98.1% and 104%; viability, T/C (compound 0.1 µM): 99.6% and 97.7%; viability, T/C (compound 0.316 µM): 90.7% and 104%; viability, T/C (compound 1 µM): 119% and 109%; viability, T/C (compound 3.16 µM): 125% and 119%; viability, T/C (compound 10 µM): 41.7% and 92.9%; IC50 (curve of compound): 8630 nM and > 10000 nM
3 | Cc1nc(NC(=O)N2CCCC2C(N)=O)sc1-c1ccnc(C(C)(C)C(F)(F)F)c1 (centres undefined) |  |  |  |  |  |  |  |  |  |  |  |  |  |  |  |  |  |  |  |  | viability, T/C (compound 0.0316 µM): 82.8% and 73.3%; viability, T/C (compound 0.1 µM): 78.5% and 59.6%; viability, T/C (compound 0.316 µM): 50.1% and 53.2%; viability, T/C (compound 1 µM): 49.3% and 48%; viability, T/C (compound 3.16 µM): 44% and 47.7%; viability, T/C (compound 10 µM): 15.2% and 14.2%; IC50 (curve of compound): 849 nM and 1070 nM
4 | C=CCn1c(=O)c2cnc(Nc3ccc(N4CCN(C)CC4)cc3)nc2n1-c1cccc(C(C)(C)O)n1 + CCN1CCN(Cc2ccc(Nc3ncc(F)c(-c4cc(F)c5nc(C)n(C(C)C)c5c4)n3)nc2)CC1 | 446 | 450 | 290 | 59.9 | 51.2 | 52.6 | 41.4 | 24 | 24.5 | 59.6 | 56.3 | 52.2 | 43.2 | 26.3 | 24.9 | 55.7 | 53.3 | 51.1 | 38.7 | 31.6 | IC50 [22]: 515 nM; IC50 [23]: 290 nM; viability, T/C [24]: 66.6%; viability, T/C [25]: 76.6%; viability, T/C [26]: 53.7%; viability, T/C [27]: 42.5%; viability, T/C [28]: 22%; viability, T/C [29]: 27.1%; viability, T/C [30]: 67.4%; viability, T/C [31]: 54.7%; viability, T/C [32]: 51.9%; viability, T/C [33]: 39.6%; viability, T/C [34]: 24%; viability, T/C [35]: 26.4%; viability, T/C [21]: 25.1%
5 | Cn1nccc1Nc1nccc(-c2ccn(C(CO)c3ccc(Cl)c(F)c3)c(=O)c2)n1 (centres undefined) + CCN1CCN(Cc2ccc(Nc3ncc(F)c(-c4cc(F)c5nc(C)n(C(C)C)c5c4)n3)nc2)CC1 | > 10000 | > 10000 | > 10000 | 54.4 | 52.1 | 55.6 | 64.8 | 87.7 | 47.2 | 52.4 | 68.5 | 64.7 | 65.4 | 72.9 | 54.3 | 62.4 | 57.1 | 61.2 | 63.2 | 92 | IC50 [22]: > 10000 nM; IC50 [23]: > 10000 nM; viability, T/C [24]: 87.1%; viability, T/C [25]: 78.3%; viability, T/C [26]: 97.1%; viability, T/C [27]: 114%; viability, T/C [28]: 127%; viability, T/C [29]: 93.8%; viability, T/C [30]: 59.1%; viability, T/C [31]: 58%; viability, T/C [32]: 66.1%; viability, T/C [33]: 76.6%; viability, T/C [34]: 115%; viability, T/C [35]: 39.8%; viability, T/C [21]: 51.5%
